Measured values as given in article PMC12123411, “Structural insight into the novel Thermus thermophilus SPOUT methyltransferase RlmR catalysing Um2552 formation in the 23S rRNA A-loop: a case of convergent evolution” (Nucleic Acids Research, 2025).

Key:
RlmR (TTC1712) [1] = molecular target: T1, RlmR (TTC1712) (Thermus thermophilus, UniProt Q72GY4); experiment: X-ray crystal structure, […] Å; assay type: binding; conditions: ternary complex with U2552 59-mer A-loop RNA; SAH in bent conformation; SAM site at the trefoil knot; pH 4.5
T1 construct: gene TT_C1712; full-length ORF (about 260 residues), N-terminal His-tag, pET28, codon-optimised gene, expressed in E. coli Rosetta; homodimer; HB8 orthologue TTHA0275 differs by three residues
T1 sequence (Q72GY4 1-260): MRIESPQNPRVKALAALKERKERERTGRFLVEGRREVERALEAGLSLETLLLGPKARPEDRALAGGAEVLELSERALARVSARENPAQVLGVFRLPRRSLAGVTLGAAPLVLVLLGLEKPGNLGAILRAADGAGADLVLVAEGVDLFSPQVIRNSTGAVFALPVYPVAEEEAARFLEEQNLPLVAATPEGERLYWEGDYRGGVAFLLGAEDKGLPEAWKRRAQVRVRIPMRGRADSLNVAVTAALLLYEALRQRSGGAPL

RlmR (TTC1712) [2] = molecular target: T1, RlmR (TTC1712); experiment: X-ray crystal structure (co-crystal with RNA and SAM); also radiolabelled methyl transfer assay; assay type: binding; conditions: co-substrate U2552 59-mer RNA; SAM kept in the dimer site without RNA, turned over to SAH in the RNA-bound site; assay pH 8.0, 5 mM MgCl2, 50 °C, labelled compound
[3] = molecular target: RlmR (TTC1712), 23S rRNA Um2552 SPOUT methyltransferase of Thermus thermophilus HB27 (Thermus thermophilus HB27); experiment: crystal structure; RlmR apoenzyme crystallised under oil at 20°C (100 mM Na citrate pH 4, 20% PEG6000, 1 M LiCl); asymmetric unit of two dimers; the same dimer holds the 59-mer RNA in the complexes with SAH or SAM
[4] = molecular target: RlmR (TTC1712), 23S rRNA Um2552 SPOUT methyltransferase of Thermus thermophilus HB27 (Thermus thermophilus HB27); experiment: SEC; gel filtration chromatography of purified RlmR (Supplementary Fig. S4)

## Nc1ncnc2c1ncn2[C@@H]1O[C@H](CSCC[C@H](N)C(=O)O)[C@@H](O)[C@H]1O [SAH, S-adenosyl-homocysteine]
RlmR (TTC1712) [1]
  X-ray crystal structure, 1.9 Å: crystal structure of RlmR in complex with the 59-mer RNA and SAH to a resolution

## C[S+](CC[C@H](N)C(=O)O)C[C@H]1O[C@@H](n2cnc3c(N)ncnc32)[C@H](O)[C@@H]1O (stereo partly shown) [SAM, S-adenosylmethionine]
RlmR (TTC1712) [2]
  X-ray crystal structure (co-crystal with RNA and SAM); also radiolabelled methyl: in the other catalytic site of the dimer, not hosting the substrate, the co-substrate remains present as SAM

## RlmR (TTC1712), 23S rRNA Um2552 SPOUT methyltransferase of Thermus thermophilus HB27 (enzyme)
[3]
  stoichiometry N: 2
[4]
  stoichiometry N: 2
